Test results taken from US20110275693A1, “Pharmaceutical Compositions Comprising 2-Oxo-1-Pyrrolidine Derivatives” (UCB PHARMA, S.A., priority 2009, published 2011).

Key:
[1] = system: patients with post-herpetic neuralgia; conditions: cited from earlier work
[2] = system: epilepsy patients; conditions: adult patients, adjunctive treatment; cited from earlier work
[3] = system: GAERS rats; test: Spontaneous SWDs in GAERS rats; assay type: in vivo, rat
[4] = system: genetically sound-sensitive male mice; test: Audiogenic seizures in mice; assay type: in vivo; conditions: audiogenic seizure-susceptible mice; brivaracetam i.p. 30 min, levetiracetam i.p. 60 min pretreatment
Experimental: Audiogenic seizures in mice: Genetically sound-sensitive male mice (16-28 g; n=10 per group), responding with wild running, clonic and tonic convulsions to an acoustic stimulation, were used. Audiogenic seizures were induced by an acoustic stimulus (90 dB, 10-20 kHz) applied for 30 s. The mice were pretreated with either saline, brivaracetam (i.p., 30 min) or levetiracetam (i.p., 60 min), and the proportion of mice protected against clonic convulsions was used as the end point to assess anticonvulsant activity.

[5] = system: pentylenetetrazol-induced clonic convulsions in mice; test: Chemically induced seizures in mice (pentylenetetrazol); assay type: in vivo; conditions: i.p. 30 min before seizure induction, higher ED50 values than audiogenic model
Experimental: The dose was selected based on dose-effect curves in saline-treated animals as the convulsive dose inducing clonic convulsions of all four extremities in 97% of the animals. Immediately after administration of the chemoconvulsant, the mice were placed individually in small plastic cages (25 13 8 cm) and observed for the presence of clonic convulsions in all four extremities, for 60 min. The occurrence of tonic convulsions (hindlimb extension) and mortality was also recorded during this interval. The proportion of mice protected against clonic convulsions was calculated and used as the end point for anticonvulsant activity.

[6] = system: amygdala-kindled rats; test: Fully amygdala-kindled rats; assay type: in vivo, rat; conditions: for dose significantly reducing the after-discharge duration: 212.3 is the highest brivaracetam dose tested
[7] = system: corneally kindled mice; test: Corneal kindling of mice; assay type: in vivo
[8] = system: rat hippocampal slices; test: Epileptiform responses in hippocampal slices (field potentials, CA3 area); assay type: cell-based, Sprague-Dawley rats; parameters: rate of spontaneous field bursting in HKLCF: dose or concentration left out as unconfirmed; conditions: for evoked epileptiform responses (PS1 amplitude, repetitive PSs) in HKLCF: CA3 area, fimbrial stimulation, high-K+/low-Ca2+ fluid
Experimental: The effect of brivaracetam on epileptiform responses induced by high-K+/low-Ca2+ concentrations or by bicuculline was examined in transverse hippocampal slices prepared from Sprague-Dawley rats according to previously reported standard procedures. The epileptiform responses were induced by passing from a normal perfusion of artificial cerebrospinal fluid (ACSF) (K+3 mM; Ca2+2.4 mM) to either high-K+/low-Ca2+ fluid (HKLCF) (K+7.5 mM; Ca2+0.5 mM) or to […] bicuculline methiodide (BMI)-containing ACSF.
Extracellular field potentials (FPs) were recorded in the CA3 area of the slices with 2 M NaCl-filled glass microelectrodes. The evoked FPs were recorded at 10-min intervals in response to fimbrial stimulation with constant current rectangular pulses that elicit a single population spike (PS) of 50-75% of the maximal amplitude when the slice is in ACSF. In the HKLCF model, 2 min of spontaneous activity were also recorded, in the middle of each 10-min interval between the recordings of evoked responses.
Either brivaracetam or levetiracetam was added to the bathing fluid of the slices 20 min before shifting from ACSF to either HKLCF or […] BMI-containing ACSF, and was kept in the perfusion fluid throughout the experiment.

[9] = system: rat hippocampal slices; conditions: cited from earlier work

| Compound | efficacy in the treatment of post-herpetic neuralgia [1] | efficacy in the treatment of epilepsy [2] | dose from which spontaneous SWDs are significantly suppressed [3] [mg/kg] | dose giving complete inhibition of spontaneous SWDs ([3]; highest dose tested) [mg/kg] | protection against the expression of clonic convulsions [4] | protection against clonic convulsions induced by pentylenetetrazol [5] | dose from which significant suppression in motor-seizure severity is induced [6] [mg/kg] | dose significantly reducing the after-discharge duration [6] [mg/kg] | incidence of generalized motor seizures after termination of treatment ([7]; continued corneal stimulations, group previously treated with the highest dose) | incidence of generalized motor seizures ([7]; pretreatment during corneal kindling of mice) | rate of spontaneous field bursting in HKLCF [8] | evoked epileptiform responses (PS1 amplitude, repetitive PSs) in HKLCF [8] | epileptiform responses induced by high-K+/low-Ca2+ concentrations in the perfusion fluid and by bicuculline [9] |
| --- | --- | --- | --- | --- | --- | --- | --- | --- | --- | --- | --- | --- | --- |
| CCC[C@@H]1CC(=O)N([C@@H](CC)C(N)=O)C1 [Brivaracetam, (2S)-2-[(4R)-2-oxo-4-propyl-pyrrolidin-1-yl] butanamide] | effective in the treatment of patients with post-herpetic neuralgia | effective in the treatment of epilepsy | ≥ 2.1 | 67.9 | protected against the expression of clonic convulsions | protected against clonic convulsions induced by pentylenetetrazol | ≥ 21.2 | 212.3 | persistent reduction in the incidence of generalized motor seizures | significant reduction in the incidence of generalized motor seizures | reduced the rate of this spontaneous bursting | reduced these epileptiform responses | – |
| CC[C@@H](C(N)=O)N1CCCC1=O [Levetiracetam] | – | – | – | – | protected against the expression of clonic convulsions | – | ≥ 170 | > 1700 | – | – | – | reduced these epileptiform responses | reduces epileptiform responses |
| CC[C@@H](C(N)=O)N1C[C@H](C=C(F)F)CC1=O [Seletracetam, (2S)-2-[(4S)-4-(2,2-difluorovinyl)-2-oxo-pyrrolidin-1-yl]butanamide] | – | effective in the treatment of epilepsy | – | – | – | – | – | – | – | – | – | – | – |
